Holding throughout (assay type): physicochemical
Data set [1] can be described thus: Conversion of chelerythrine pseudobases to parent chelerythrine in simulated gastric fluid (SGF). The note with it: for conversion to chelerythrine chloride (1H NMR analysis): 1 mg in 5 mL, 37° C. As for the experimental part:
Simulated Gastric Fluid (SGF): Sodium chloride (2 gm), 750 mL distilled water, and 7.0 mL of concentrated hydrochloric acid are added into a 1000 ml volumetric flask. The flask is swirled to mix and the volume brought to 1000 mL with distilled water. The pH should be approx. 1.2.
(§1) General conversion procedure: The pseudobases are placed in SGF or SIF at about 0.2 mg/mL concentration and placed in 37° C. bath with gentle stirring. For those pseudobases which have low aqueous solubility, up to 20% co-solvent such as methanol is added to facilitate dissolution. The progress of the conversion is followed by visual observation (color change) and ^1H NMR analysis.
6-tert-Butoxy-5,6-dihydrochelerythrine (1 mg) is placed in 5 mL of simulated gastric fluid in a glass vial. The vial is gently placed in 37° C. bath with gentle stirring. The solid pseudobase gradually dissolves to give a yellow solution which is the characteristic color of the parent chelerythrine chloride.
6-Diethyl-(5,6-dihydrochelerythrine)-malonate (1 mg) is placed in 5 mL of simulated gastric fluid in a glass vial containing 10% methanol. The vial is gently placed in 37° C. bath with gentle stirring. The solid pseudobase gradually dissolves to give a yellow solution which is the characteristic color of the parent chelerythrine chloride.

Data set [2] can be described thus: Solubility of the chelerythrine ether dimer. The source says: (§2) The quaternary nitrogen imparts inherent chemical reactivity into these alkaloids. Nucleophiles can readily add to the adjacent carbon to create a neutral pseudobase. Water forms an unstable adduct with chelerythrine that can be seen in NMR studies. Additionally, 6-methoxy-5,6-dihydrochelerytherine and 6-ethoxy-5,6-dihydrochelerytherine (Artarine) have been reported as byproducts formed during the isolation of chelerythrine from plants utilizing methanol and ethanol extractions. The ability of this class of compounds to form pseudobases which can convert back to the quartenary […] is dependent on the solubility of the resulting pseudobase in biological media, the basicity of the leaving group adjacent to the position to become quartenary and the aromatic substitution pattern and nature of substituting agents (electron donating or withdrawing). Sanguinarine forms the hydroxyl psuedobase in pH 7.4 water to a higher extent than Chelerythrine. Under basic aqueous conditions, the hydroxypsuedobase of Cheleryturine will dimerize forming an ether bridge between two Chelerythrine molecules attached to the carbon adjacent to the ring nitrogen.

Data set [3] is described as follows: Conversion to chelerythrine in 0.1N HCL with 30% methanol. The following applies: then 30% methanol added.
Excerpt: as §2

A short description of data set [4]: Conversion of chelerythrine pseudobases to parent chelerythrine in simulated intestinal fluid (SIF). The following applies: 1 mg in 5 mL, 37° C., after 4 h. Here is the method:
Simulated Intestinal Fluid (SIF): Monobasic potassium phosphate (6.8 gm) and sodium hydroxide (0.616 gm) are added into 250 ml of distilled water in a 1000 ml volumetric flask and swirled until dissolved. 700 ml distilled water is added and the pH checked. The pH is adjusted to pH 6.8+/−0.1 by adding either 0.2N sodium hydroxide or 0.2N hydrochloric acid and the volume is brought to 1000 ml.
as §1
N-(isopropyl)-5,6-dihydrochelerythrine-6-amine (1 mg) is placed in 5 mL of simulated intestinal fluid in a glass vial. The vial is gently placed in 37° C. bath with gentle stirring. The solid pseudobase gradually dissolved to give a yellow solution which is the characteristic color of the parent chelerythrine chloride.

Consider `COc1ccc2c(c1OC)C(OC1c3c(ccc(OC)c3OC)-c3ccc4cc5c(cc4c3N1C)OCO5)N(C)c1c-2ccc2cc3c(cc12)OCO3` (stereo not drawn) [compound 34, 6-(5,6-dihydrochelerytherin-6-yloxy)-5,6-dihydrochelerytherine], for which the “conversion to Chelerythrine in simulated gastric fluids” value in data set [1] (simulated gastric fluids) is on record as “does not convert readily”. Further, the solubility result in data set [2] was “quite insoluble”. The “conversion to Chelerythrine” value in data set [3] is “occurs rapidly”. For `COc1ccc2c(c1OC)C(OC(C)(C)C)N(C)c1c-2ccc2cc3c(cc12)OCO3` (stereo not drawn) [compound 37, 6-tert-butoxy-5,6-dihydrochelerytherine], the “conversion to chelerythrine chloride (1H NMR analysis)” value (“conversion to chelerythrine chloride” for short) in data set [1] (simulated gastric fluid, after 2 h) is listed as “complete conversion”. Regarding `COc1ccc2c(c1OC)C(NC(C)C)N(C)c1c-2ccc2cc3c(cc12)OCO3` (stereo not drawn) [compound 43, N-(isopropyl)-5,6-dihydrochelerythrine-6-amine], the “conversion to chelerythrine chloride” value in data set [4] was “complete conversion”. `CCOC(=O)C(C(=O)OCC)C1c2c(ccc(OC)c2OC)-c2ccc3cc4c(cc3c2N1C)OCO4` (stereo not drawn) [compound 50, 6-diethyl-(5,6-dihydrochelerythrine)-malonate]: the “conversion to chelerythrine chloride” value in data set [1] (simulated gastric fluid containing 10% methanol, after 16 h) is on record as “complete conversion”.

Source of the values: patent US7531550B2, “Pseudobase benzo[c]phenanthridines with improved efficacy, stability, and safety” (Yale University, priority 2006, dated 2009).
